Measured values published in patent publication US10947252B2, “Inhibitors of KEAP1-Nrf2 protein-protein interaction” (Janssen Pharmaceutica NV, priority 2018, dated 2021).

Tests used:
[1] = biological target: Kelch domain of human KEAP1 (321-624 aa) (Homo sapiens (Human), UniProt Q14145); assay: KEAP1 KELCH ThermoFluor binding assay; conditions: KEAP Kelch […], 1,8-ANS, pH 7.0, average of results obtained, read-out: Tf Kd;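 also: Ligand-induced melting temperature shift of E. coli-expressed KEAP1 Kelch protein, Kd estimated from concentration-response curves of ΔTm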
[2] = system: Glo-Response ARE-luc2P HEK293 cell line; assay: ARE luciferase reporter cell-based assay; conditions: Homo sapiens, HEK293, 24 h, average of results obtained;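 also: luciferase signal tracks Nrf2 activation of the ARE once compounds disrupt KEAP1-Nrf2 binding, read with One-Glo reagent, DMSO serving as low control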

Kelch domain of human KEAP1 (321-624 aa), sequence (Q14145 321-624): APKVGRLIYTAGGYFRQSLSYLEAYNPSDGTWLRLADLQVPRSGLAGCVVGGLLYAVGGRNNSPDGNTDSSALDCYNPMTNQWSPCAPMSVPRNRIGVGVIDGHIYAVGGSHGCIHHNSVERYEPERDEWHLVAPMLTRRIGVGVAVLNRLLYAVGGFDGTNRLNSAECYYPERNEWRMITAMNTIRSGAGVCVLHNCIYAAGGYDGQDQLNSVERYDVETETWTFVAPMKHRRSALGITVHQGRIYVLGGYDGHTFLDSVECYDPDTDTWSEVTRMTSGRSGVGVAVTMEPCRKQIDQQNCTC

SMILES	Kd [1] [nM]	EC50 [2] [nM]
Cc1ccc([C@H](CC(=O)O)c2ccn3c(C(F)F)nnc3c2C)cc1CN1C[C@@H]2COCCN2c2ncccc2S1(=O)=O (single isomer, unassigned) [Example 458, (*S)-3-(3-(Difluoromethyl)-8-methyl-[1,2,4]triazolo[4,3-a]pyridin-7-yl)-3-(3-(((*R)-5,5-dioxido-7a,8,10,11-tetrahydro-[1,4]oxazino[3,4-d]pyrido[2,3-f][1,2,5]thiadiazepin-6(7H)-yl)methyl)-4-methylphenyl)propanoic Acid]	< 1	276
Cc1ccc([C@@H](CC(=O)O)c2ccn3c(C(F)F)nnc3c2C)cc1CN1C[C@@H]2COCCN2c2ncccc2S1(=O)=O (single isomer, unassigned) [Example 459, (*R)-3-(3-(Difluoromethyl)-8-methyl-[1,2,4]triazolo[4,3-a]pyridin-7-yl)-3-(3-(((*R)-5,5-dioxido-7a,8,10,11-tetrahydro-[1,4]oxazino[3,4-d]pyrido[2,3-f][1,2,5]thiadiazepin-6(7H)-yl)methyl)-4-methylphenyl)propanoic Acid]	1.19	203
Cc1ccc([C@H](CC(=O)O)c2ccn3c(C(F)F)nnc3c2C)cc1CN1C[C@H]2COCCN2c2ncccc2S1(=O)=O (single isomer, unassigned) [Example 461, (*S)-3-(3-(Difluoromethyl)-8-methyl-[1,2,4]triazolo[4,3-a]pyridin-7-yl)-3-(3-(((*S)-5,5-dioxido-7a,8,10,11-tetrahydro-[1,4]oxazino[3,4-d]pyrido[2,3-f][1,2,5]thiadiazepin-6(7H)-yl)methyl)-4-methylphenyl)propanoic Acid]	1.19	68.7
CC[C@@H]1CN(Cc2cc([C@@H](CC(=O)O)c3ccn4c(C(F)F)nnc4c3C)ccc2C)S(=O)(=O)c2cccnc2O1 (single isomer, unassigned) [Example 465, (*R)-3-(3-(Difluoromethyl)-8-methyl-[1,2,4]triazolo[4,3-a]pyridin-7-yl)-3-(3-(((R)-4-ethyl-1,1-dioxido-3,4-dihydro-2H-pyrido[2,3-b][1,4,5]oxathiazepin-2-yl)methyl)-4-methylphenyl)propanoic Acid]	< 1	154
Cc1ccc([C@H](CC(=O)O)c2ccn3c(C(F)F)nnc3c2C)cc1CN1CC2(COC2)Oc2ccccc2S1(=O)=O (single isomer, unassigned) [Example 467, (*S)-3-(3-(Difluoromethyl)-8-methyl-[1,2,4]triazolo[4,3-a]pyridin-7-yl)-3-(3-((1,1-dioxidospiro[benzo[b][1,4,5]oxathiazepine-4,3′-oxetan]-2(3H)-yl)methyl)-4-methylphenyl)propanoic Acid]	< 1	79.3
Cc1ccc([C@H](CC(=O)O)c2ccn3c(C(F)F)nnc3c2C)cc1CN1CC2(COC2)Oc2ncccc2S1(=O)=O (single isomer, unassigned) [Example 470, (*S)-3-(3-(Difluoromethyl)-8-methyl-[1,2,4]triazolo[4,3-a]pyridin-7-yl)-3-(3-((1′,1′-dioxidospiro[oxetane-3,4′-pyrido[2,3-b][1,4,5]oxathiazepin]-2′(3′H)-yl)methyl)-4-methylphenyl)propanoic Acid]	< 1	472

More lines, main results first:

Kd [1] [nM]	SMILES	EC50 [2] [nM]
< 1	Cc1ccc([C@@H](CC(=O)O)c2ccn3c(C(F)F)nnc3c2C)cc1CN1C[C@@H]2CCCCN2c2ncccc2S1(=O)=O (single isomer, unassigned) [Example 448, (*R)-3-(3-(Difluoromethyl)-8-methyl-[1,2,4]triazolo[4,3-a]pyridin-7-yl)-3-(3-(((*S)-5,5-dioxido-7,7a,8,9,10,11-hexahydro-6H-dipyrido[2,1-d:2′,3′-f][1,2,5]thiadiazepin-6-yl)methyl)-4-methylphenyl)propanoic Acid]	218
< 1	Cc1ccc([C@H](CC(=O)O)c2ccn3c(C(F)F)nnc3c2C)cc1CN1C[C@H]2CCCN2c2ncccc2S1(=O)=O (single isomer, unassigned) [Example 450, (*S)-3-(3-(Difluoromethyl)-8-methyl-[1,2,4]triazolo[4,3-a]pyridin-7-yl)-3-(3-(((R)-5,5-dioxido-7a,8,9,10-tetrahydropyrido[2,3-f]pyrrolo[2,1-d][1,2,5]thiadiazepin-6(7H)-yl)methyl)-4-methylphenyl)propanoic Acid]	25.1
< 1	Cc1ccc([C@@H](CC(=O)O)c2ccn3c(C(F)F)nnc3c2C)cc1CN1C[C@H]2CCCN2c2ncccc2S1(=O)=O (single isomer, unassigned) [Example 451, (*R)-3-(3-(Difluoromethyl)-8-methyl-[1,2,4]triazolo[4,3-a]pyridin-7-yl)-3-(3-(((R)-5,5-dioxido-7a,8,9,10-tetrahydropyrido[2,3-f]pyrrolo[2,1-d][1,2,5]thiadiazepin-6(7H)-yl)methyl)-4-methylphenyl)propanoic Acid]	265
< 1	Cc1ccc([C@H](CC(=O)O)c2ccn3c(C(F)(F)F)nnc3c2C)cc1CN1C[C@@H]2CCC(F)(F)CN2c2ncccc2S1(=O)=O (single isomer, unassigned) [Example 453, (*S)-3-(3-(((*S)-10,10-Difluoro-5,5-dioxido-7,7a,8,9,10,11-hexahydro-6H-dipyrido[2,1-d:2′,3′-f][1,2,5]thiadiazepin-6-yl)methyl)-4-methylphenyl)-3-(8-methyl-3-(trifluoromethyl)-[1,2,4]triazolo[4,3-a]pyridin-7-yl)propanoic Acid]	162
< 1	Cc1ccc([C@@H](CC(=O)O)c2ccn3c(C(F)(F)F)nnc3c2C)cc1CN1C[C@@H]2CCC(F)(F)CN2c2ncccc2S1(=O)=O (single isomer, unassigned) [Example 455, (*R)-3-(3-(((*S)-10,10-Difluoro-5,5-dioxido-7,7a,8,9,10,11-hexahydro-6H-dipyrido[2,1-d:2′,3′-f][1,2,5]thiadiazepin-6-yl)methyl)-4-methylphenyl)-3-(8-methyl-3-(trifluoromethyl)-[1,2,4]triazolo[4,3-a]pyridin-7-yl)propanoic Acid]	798
< 1	Cc1ccc([C@@H](CC(=O)O)c2ccn3c(C(F)(F)F)nnc3c2C)cc1CN1C[C@H]2CCC(F)(F)CN2c2ncccc2S1(=O)=O (single isomer, unassigned) [Example 456, (*R)-3-(3-(((*R)-10,10-Difluoro-5,5-dioxido-7,7a,8,9,10,11-hexahydro-6H-dipyrido[2,1-d:2′,3′-f][1,2,5]thiadiazepin-6-yl)methyl)-4-methylphenyl)-3-(8-methyl-3-(trifluoromethyl)-[1,2,4]triazolo[4,3-a]pyridin-7-yl)propanoic Acid]	414
13.7	Cc1ccc([C@@H](CC(=O)O)c2ccn3c(C(F)F)nnc3c2C)cc1CN1C[C@H]2COCCN2c2ncccc2S1(=O)=O (single isomer, unassigned) [Example 462, (*R)-3-(3-(Difluoromethyl)-8-methyl-[1,2,4]triazolo[4,3-a]pyridin-7-yl)-3-(3-(((*S)-5,5-dioxido-7a,8,10,11-tetrahydro-[1,4]oxazino[3,4-d]pyrido[2,3-f][1,2,5]thiadiazepin-6(7H)-yl)methyl)-4-methylphenyl)propanoic Acid]	2930
